# Assay results reported in article PMC5218480 (PLoS ONE, 2017).
# Tested on: MV-4-11 cells
# Test: Gene expression microarray analysis (Affymetrix PrimeView) and GSEA
# Type: cell-based, human
# Set-up: RFU PODN (11730768_x_at) / Fold change /veh PODN (11730768_x_at) / RFU LINC00158 (11744669_a_at) / Fold change /veh LINC00158 (11744669_a_at) / RFU DUSP10 (11751237_a_at) / Fold change /veh DUSP10 (11751237_a_at) / RFU ID3 (11757404_x_at) / Fold change /veh ID3 (11757404_x_at) / RFU PLEKHG5 (11737974_s_at) / Fold change /veh PLEKHG5 (11737974_s_at) / RFU LRRC4B (11730491_at) / Fold change /veh LRRC4B (11730491_at) / RFU GIMAP4 (11747438_a_at) / Fold change /veh GIMAP4 (11747438_a_at) / RFU KRT8 (11758183_x_at) / Fold change /veh KRT8 (11758183_x_at) / RFU CNN1 (11734310_a_at) / Fold change /veh CNN1 (11734310_a_at) / RFU VPS37D (11726825_at) / Fold change /veh VPS37D (11726825_at) / RFU C10orf10 (11716522_x_at) / Fold change /veh C10orf10 (11716522_x_at) / RFU KIR2DL2 /// KIR2DL4 /// KIR2DL5A /// KIR2DL5B /// KIR2DS1 /// KIR2DS2 /// KIR2DS3 /// KIR2DS4 /// KIR3DL3 /// KIR3DL3 /// KIR3DS1 (11738374_at) / Fold change /veh KIR2DL2 /// KIR2DL4 /// KIR2DL5A /// KIR2DL5B /// KIR2DS1 /// KIR2DS2 /// KIR2DS3 /// KIR2DS4 /// KIR3DL3 /// KIR3DL3 /// KIR3DS1 (11738374_at) / RFU C1QL1 (11718748_at) / Fold change /veh C1QL1 (11718748_at) / RFU TMPRSS4 (11747572_a_at) / Fold change /veh TMPRSS4 (11747572_a_at) / RFU HAMP (11756126_x_at) / Fold change /veh HAMP (11756126_x_at) / RFU RNFT2 (11725882_a_at) / Fold change /veh RNFT2 (11725882_a_at) / RFU NR4A2 (11747474_a_at) / Fold change /veh NR4A2 (11747474_a_at) / RFU ABCC12 (11746883_a_at) / Fold change /veh ABCC12 (11746883_a_at) / RFU TMEM136 (11760407_x_at) / Fold change /veh TMEM136 (11760407_x_at) / RFU CLDN22 /// WWC2 (11732394_at) / Fold change /veh CLDN22 /// WWC2 (11732394_at) / RFU HLA-DPB1 (11760878_x_at) / Fold change /veh HLA-DPB1 (11760878_x_at) / RFU SPINT1 (11716480_a_at) / Fold change /veh SPINT1 (11716480_a_at) / RFU GAP43 (11754022_s_at) / Fold change /veh GAP43 (11754022_s_at) / RFU A4GNT (11735810_at) / Fold change /veh A4GNT (11735810_at) / RFU PRB3 (11715151_x_at) / Fold change /veh PRB3 (11715151_x_at) / RFU TUBB4B (11761932_at) / Fold change /veh TUBB4B (11761932_at) / RFU CAPN14 (11732068_a_at) / Fold change /veh CAPN14 (11732068_a_at) / RFU TMCC2 (11721928_a_at) / Fold change /veh TMCC2 (11721928_a_at) / RFU IRGQ (11745062_a_at) / Fold change /veh IRGQ (11745062_a_at) / RFU FAM174B (11720279_a_at) / Fold change /veh FAM174B (11720279_a_at) / RFU TMPRSS4 (11748680_a_at) / Fold change /veh TMPRSS4 (11748680_a_at) / RFU FAM212B (11763350_a_at) / Fold change /veh FAM212B (11763350_a_at) / RFU PLEKHG5 (11743358_a_at) / Fold change /veh PLEKHG5 (11743358_a_at) / RFU ZSCAN30 (11745921_a_at) / Fold change /veh ZSCAN30 (11745921_a_at) / RFU CMKLR1 (11741424_a_at) / Fold change /veh CMKLR1 (11741424_a_at) / RFU LOC101060620 /// MAPK8IP1 (11723275_at) / Fold change /veh LOC101060620 /// MAPK8IP1 (11723275_at) / RFU SPTSSB (11747773_x_at) / Fold change /veh SPTSSB (11747773_x_at) / RFU PRSS12 (11739890_at) / Fold change /veh PRSS12 (11739890_at) / RFU BIN1 (11741810_x_at) / Fold change /veh BIN1 (11741810_x_at) / RFU WNT11 (11732464_a_at) / Fold change /veh WNT11 (11732464_a_at) / RFU C10orf10 (11716521_a_at) / Fold change /veh C10orf10 (11716521_a_at) / RFU C5orf56 (11738089_at) / Fold change /veh C5orf56 (11738089_at) / RFU CYB561 (11721691_x_at) / Fold change /veh CYB561 (11721691_x_at) / RFU ANKRD19P (11752326_a_at) / Fold change /veh ANKRD19P (11752326_a_at) / RFU OR2T12 /// OR2T33 /// OR2T8 (11738714_s_at) / Fold change /veh OR2T12 /// OR2T33 /// OR2T8 (11738714_s_at) / RFU VCAN (11748164_a_at) / Fold change /veh VCAN (11748164_a_at) / RFU JSRP1 (11732532_at) / Fold change /veh JSRP1 (11732532_at) / RFU KRTAP10-11 (11738290_x_at) / Fold change /veh KRTAP10-11 (11738290_x_at) / RFU MYO3A (11730013_a_at) / Fold change /veh MYO3A (11730013_a_at) / RFU EBF3 (11725865_a_at) / Fold change /veh EBF3 (11725865_a_at) / RFU CAMK2N1 (11719241_x_at) / Fold change /veh CAMK2N1 (11719241_x_at) / RFU C5orf56 (11738088_a_at) / Fold change /veh C5orf56 (11738088_a_at) / RFU OLFML3 (11715873_a_at) / Fold change /veh OLFML3 (11715873_a_at) / RFU LOC100653217 /// NTM (11731650_a_at) / Fold change /veh LOC100653217 /// NTM (11731650_a_at) / RFU MAPK11 (11762145_a_at) / Fold change /veh MAPK11 (11762145_a_at) / RFU FIZ1 (11724087_x_at) / Fold change /veh FIZ1 (11724087_x_at) / RFU OASL (11726364_x_at) / Fold change /veh OASL (11726364_x_at) / RFU SOX15 (11748057_x_at) / Fold change /veh SOX15 (11748057_x_at) / RFU CD79A (11719716_a_at) / Fold change /veh CD79A (11719716_a_at) / RFU HIST1H1D (11736915_at) / Fold change /veh HIST1H1D (11736915_at) / RFU CASKIN2 (11723855_a_at) / Fold change /veh CASKIN2 (11723855_a_at) / RFU LOC730098 (11760151_x_at) / Fold change /veh LOC730098 (11760151_x_at) / RFU OR4N2 (11742367_at) / Fold change /veh OR4N2 (11742367_at) / RFU PRRT2 (11749266_a_at) / Fold change /veh PRRT2 (11749266_a_at) / RFU SNX32 (11753110_a_at) / Fold change /veh SNX32 (11753110_a_at) / RFU CDHR5 (11726645_a_at) / Fold change /veh CDHR5 (11726645_a_at) / RFU RCAN1 (11760418_a_at) / Fold change /veh RCAN1 (11760418_a_at) / RFU FAM167A (11723789_a_at) / Fold change /veh FAM167A (11723789_a_at) / RFU FAM26E (11764081_at) / Fold change /veh FAM26E (11764081_at) / RFU ISYNA1 (11749810_s_at) / Fold change /veh ISYNA1 (11749810_s_at) / RFU ACY1 (11761880_at) / Fold change /veh ACY1 (11761880_at) / RFU 11764098_at / Fold change /veh 11764098_at / RFU SAMD14 (11745864_x_at) / Fold change /veh SAMD14 (11745864_x_at) / RFU NPB (11741838_a_at) / Fold change /veh NPB (11741838_a_at) / RFU TMPRSS6 (11731388_a_at) / Fold change /veh TMPRSS6 (11731388_a_at) / RFU KRTAP10-2 (11738614_at) / Fold change /veh KRTAP10-2 (11738614_at) / RFU ARHGAP8 /// PRR5-ARHGAP8 (11727945_x_at) / Fold change /veh ARHGAP8 /// PRR5-ARHGAP8 (11727945_x_at) / RFU KRTAP5-7 /// NADSYN1 (11734609_at) / Fold change /veh KRTAP5-7 /// NADSYN1 (11734609_at) / RFU RASL12 (11751679_a_at) / Fold change /veh RASL12 (11751679_a_at) / RFU CDKN2B (11736163_a_at) / Fold change /veh CDKN2B (11736163_a_at) / RFU PRF1 (11729649_at) / Fold change /veh PRF1 (11729649_at) / RFU, ZNF638 /// ZNF638-IT1 / Fold change vs veh, ZNF638 /// ZNF638-IT1 / RFU, PANK3 / Fold change vs veh, PANK3 / RFU, SH3YL1 / Fold change vs veh, SH3YL1 / RFU, ZEB2 / Fold change vs veh, ZEB2 / RFU, NRIP1 / Fold change vs veh, NRIP1 / RFU, PTTG1IP / Fold change vs veh, PTTG1IP / RFU, CAPN2 / Fold change vs veh, CAPN2 / RFU, MED14 / Fold change vs veh, MED14 / RFU, SNORA58 / Fold change vs veh, SNORA58 / RFU, C1orf63 / Fold change vs veh, C1orf63 / RFU, LRRFIP1 / Fold change vs veh, LRRFIP1 / RFU, NDUFAF7 / Fold change vs veh, NDUFAF7 / RFU, SLC12A2 / Fold change vs veh, SLC12A2 / RFU, IBTK / Fold change vs veh, IBTK / RFU, ESF1 / Fold change vs veh, ESF1 / Fold change vs veh, TMEM50B / RFU, TAOK1 / Fold change vs veh, TAOK1 / RFU, ACBD3 / Fold change vs veh, ACBD3 / RFU, TMA16 / Fold change vs veh, TMA16 / RFU, RWDD3 / Fold change vs veh, RWDD3 / RFU, BCAT1 / Fold change vs veh, BCAT1 / RFU, EDEM3 / Fold change vs veh, EDEM3 / RFU, TMEM33 / Fold change vs veh, TMEM33 / RFU, WDR75 / Fold change vs veh, WDR75 / RFU, AHCTF1 / Fold change vs veh, AHCTF1 / RFU, TFRC / Fold change vs veh, TFRC / RFU, ZDHHC17 / Fold change vs veh, ZDHHC17 / RFU, NOM1 / Fold change vs veh, NOM1 / RFU, ARL8B / Fold change vs veh, ARL8B / RFU, ZBTB11 / Fold change vs veh, ZBTB11 / RFU, TAMM41 / Fold change vs veh, TAMM41 / RFU, KIAA1704 /// LOC100996395 / Fold change vs veh, KIAA1704 /// LOC100996395 / RFU, ING1 / Fold change vs veh, ING1 / RFU, TRMT61B / Fold change vs veh, TRMT61B / RFU, FUBP3 / Fold change vs veh, FUBP3 / RFU, TP53 / Fold change vs veh, TP53 / RFU, TNKS2 / Fold change vs veh, TNKS2 / RFU, ZFP14 / Fold change vs veh, ZFP14 / RFU, ACTR2 / Fold change vs veh, ACTR2 / RFU, PPP3R1 / Fold change vs veh, PPP3R1 / RFU, PIK3R1 / Fold change vs veh, PIK3R1 / RFU, HNRNPA1 / Fold change vs veh, HNRNPA1 / RFU, RNF170 / Fold change vs veh, RNF170 / RFU, ZNF28 / Fold change vs veh, ZNF28 / RFU, RNGTT / Fold change vs veh, RNGTT / RFU, OGT / Fold change vs veh, OGT / RFU, BRD1 / Fold change vs veh, BRD1 / RFU, MARS / Fold change vs veh, MARS / RFU, ZNF655 / Fold change vs veh, ZNF655 / RFU, FAHD1 / Fold change vs veh, FAHD1 / RFU, BDP1 / Fold change vs veh, BDP1 / RFU, LRRCC1 / Fold change vs veh, LRRCC1 / RFU, ARID1A / Fold change vs veh, ARID1A / RFU, ZNF146 / Fold change vs veh, ZNF146 / RFU, ZNF330 / Fold change vs veh, ZNF330 / RFU, GPN3 / Fold change vs veh, GPN3 / RFU, C9orf123 / Fold change vs veh, C9orf123 / RFU, N4BP2L2 / Fold change vs veh, N4BP2L2 / RFU, ARFIP1 / Fold change vs veh, ARFIP1 / RFU, FAM179B / Fold change vs veh, FAM179B / RFU, BCL10 / Fold change vs veh, BCL10 / RFU, UHRF1BP1L / Fold change vs veh, UHRF1BP1L / RFU, BET1 / Fold change vs veh, BET1 / RFU, CNOT2 / Fold change vs veh, CNOT2 / RFU, ZNF268 / Fold change vs veh, ZNF268 / Fold change vs veh, ZNF507 / RFU, DGCR2 / Fold change vs veh, DGCR2 / RFU, WDSUB1 / Fold change vs veh, WDSUB1 / Fold change vs veh, HSP90B1 /// MIR3652 / RFU, ADSS / Fold change vs veh, ADSS / RFU, GK / Fold change vs veh, GK / RFU, ZNF148 / Fold change vs veh, ZNF148 / RFU, TAF9 / Fold change vs veh, TAF9 / RFU, SLC1A5 / Fold change vs veh, SLC1A5 / RFU, SLMO2 / Fold change vs veh, SLMO2 / RFU, ABCC4 / Fold change vs veh, ABCC4 / RFU, LOC101060439 /// RAP1B / Fold change vs veh, LOC101060439 /// RAP1B / RFU, RFX7 / Fold change vs veh, RFX7 / RFU, GTPBP10 / Fold change vs veh, GTPBP10 / RFU, CNEP1R1 / Fold change vs veh, CNEP1R1 / RFU, BIVM-ERCC5 /// ERCC5 / Fold change vs veh, BIVM-ERCC5 /// ERCC5 / RFU, ILF3 / Fold change vs veh, ILF3 / RFU 11762660_at / Fold change /veh 11762660_at / RFU VCAN (11757783_s_at) / Fold change /veh VCAN (11757783_s_at) / RFU DDX43 (11728927_at) / Fold change /veh DDX43 (11728927_at) / RFU KRT8 (11758188_x_at) / Fold change /veh KRT8 (11758188_x_at) / RFU NKD1 (11759106_at) / Fold change /veh NKD1 (11759106_at) / RFU SRD5A1 (11742802_a_at) / Fold change /veh SRD5A1 (11742802_a_at) / RFU TPSAB1 /// TPSB2 (11721975_s_at) / Fold change /veh TPSAB1 /// TPSB2 (11721975_s_at) / RFU GSTM3 (11746129_a_at) / Fold change /veh GSTM3 (11746129_a_at) / RFU IL23R (11737362_x_at) / Fold change /veh IL23R (11737362_x_at) / RFU TMEM51 (11727254_a_at) / Fold change /veh TMEM51 (11727254_a_at) / RFU PIWIL2 (11732686_x_at) / Fold change /veh PIWIL2 (11732686_x_at) / RFU ORM1 (11744905_x_at) / Fold change /veh ORM1 (11744905_x_at) / RFU CCDC152 (11743942_at) / Fold change /veh CCDC152 (11743942_at) / RFU ECM1 (11717891_a_at) / Fold change /veh ECM1 (11717891_a_at) / RFU IL23R (11748794_a_at) / Fold change /veh IL23R (11748794_a_at) / RFU TNFAIP8L3 (11732012_x_at) / Fold change /veh TNFAIP8L3 (11732012_x_at) / RFU MBOAT4 (11741988_at) / Fold change /veh MBOAT4 (11741988_at) / RFU 11764193_at / Fold change /veh 11764193_at / RFU TMEM53 (11763286_at) / Fold change /veh TMEM53 (11763286_at) / RFU MAGEB2 (11727129_at) / Fold change /veh MAGEB2 (11727129_at) / RFU TMEM200A (11744735_a_at) / Fold change /veh TMEM200A (11744735_a_at) / RFU CCDC152 (11751479_a_at) / Fold change /veh CCDC152 (11751479_a_at) / RFU FAM211A (11726209_a_at) / Fold change /veh FAM211A (11726209_a_at) / RFU RGS16 (11746705_a_at) / Fold change /veh RGS16 (11746705_a_at) / RFU VCAN (11755009_s_at) / Fold change /veh VCAN (11755009_s_at) / RFU RHOB (11743442_s_at) / Fold change /veh RHOB (11743442_s_at) / RFU RGS16 (11720943_a_at) / Fold change /veh RGS16 (11720943_a_at) / RFU RGS16 (11720944_at) / Fold change /veh RGS16 (11720944_at) / RFU, VPS4B / Fold change vs veh, VPS4B / RFU, CREB1 / Fold change vs veh, CREB1 / RFU, DNAJC13 / Fold change vs veh, DNAJC13 / RFU, GNAQ / Fold change vs veh, GNAQ / RFU, CDK5R1 / Fold change vs veh, CDK5R1 / RFU, ZRANB3 / Fold change vs veh, ZRANB3 / RFU, CUL4A / Fold change vs veh, CUL4A / RFU, CCNY / Fold change vs veh, CCNY / RFU, UFL1 / Fold change vs veh, UFL1 / RFU, COG3 / Fold change vs veh, COG3 / RFU, DIAPH2 / Fold change vs veh, DIAPH2 / RFU, SKA2 / Fold change vs veh, SKA2 / RFU, AFF3 / Fold change vs veh, AFF3 / RFU, LMF1 / Fold change vs veh, LMF1 / RFU, IPO11 / Fold change vs veh, IPO11 / RFU, DFFB / Fold change vs veh, DFFB / RFU, FOXP1 / Fold change vs veh, FOXP1 / RFU, CARD8 / Fold change vs veh, CARD8 / RFU, STRN3 / Fold change vs veh, STRN3 / RFU, ADK / Fold change vs veh, ADK / RFU, RASSF2 / Fold change vs veh, RASSF2 / RFU, WIPF1 / Fold change vs veh, WIPF1 / RFU, LARP1B / Fold change vs veh, LARP1B / RFU, RASA1 / Fold change vs veh, RASA1 / RFU, RB1 / Fold change vs veh, RB1 / RFU, PPFIA1 / Fold change vs veh, PPFIA1 / RFU, MAT2A / Fold change vs veh, MAT2A / RFU, CCT5 / Fold change vs veh, CCT5 / RFU, WDR92 / Fold change vs veh, WDR92 / RFU, CUX1 / Fold change vs veh, CUX1 / RFU, TTC7A / Fold change vs veh, TTC7A / RFU, TMEM135 / Fold change vs veh, TMEM135 / RFU, DEPTOR / Fold change vs veh, DEPTOR / RFU, CPM / Fold change vs veh, CPM / RFU, DNAJB6 / Fold change vs veh, DNAJB6 / RFU, CACNA2D3 / Fold change vs veh, CACNA2D3 / RFU, DTX4 / Fold change vs veh, DTX4 / RFU, TFCP2 / Fold change vs veh, TFCP2 / RFU, GMCL1 /// GMCL1P1 / Fold change vs veh, GMCL1 /// GMCL1P1 / RFU, AEBP2 / Fold change vs veh, AEBP2 / RFU, SNHG1 /// SNORD22 /// SNORD25 /// SNORD26 /// SNORD27 /// SNORD28 /// SNORD29 /// SNORD31 / Fold change vs veh, SNHG1 /// SNORD22 /// SNORD25 /// SNORD26 /// SNORD27 /// SNORD28 /// SNORD29 /// SNORD31 / Fold change (Aza/veh), C12orf56 (ProbeSet 11735607_a_at) / Fold change (ACY-1035/veh), C12orf56 (ProbeSet 11735607_a_at) / Fold change (Aza/veh), FGFR1OP (ProbeSet 11751329_s_at) / Fold change (ACY-1035/veh), FGFR1OP (ProbeSet 11751329_s_at) / Fold change (Aza/veh), VPS36 (ProbeSet 11739960_a_at) / Fold change (ACY-1035/veh), VPS36 (ProbeSet 11739960_a_at) / RFU SYPL1 (11715823_x_at) / Fold change /veh SYPL1 (11715823_x_at) / RFU IGFBP7 (11715501_s_at) / Fold change /veh IGFBP7 (11715501_s_at) / RFU REEP3 (11722064_at) / Fold change /veh REEP3 (11722064_at) / RFU IGLL1 (11728026_x_at) / Fold change /veh IGLL1 (11728026_x_at): dose or concentration left out as unconfirmed
# Conditions: MV-4-11 cells, 48 hours
compound,measurement,value
Nc1ncn([C@@H]2O[C@H](CO)[C@@H](O)[C@H]2O)c(=O)n1 [azacitidine],Fold change /veh C10orf10 (11716522_x_at),1.15
